{
  "source": "patent US11414403B2",
  "about": "“Antibacterial compound and uses of same” (BIOMÉRIEUX, priority 2017, dated 2022)",
  "test_in_all_cases": "MIC by agar dilution method",
  "format_in_all_cases": "cell-based",
  "key": {"[1]": {"test_system": "Salmonella typhimurium NCTC 74", "conditions": "Salmonella enterica, 22 hours at 37° C.", "experimental": "(§1) The minimum inhibitory concentrations (MICs) of L-pyroglutamyl-L-1-aminoethyltetrazole (12) for 13 Gram-negative strains of bacteria and 8 Gram-positive strains of bacteria were determined using an agar dilution method described by Andrews J M. 2001 (“Determination of minimum inhibitory concentrations[…]; J. Antimicrob. Chemother. (2001) 48 Suppl. 1:5-16). Said method required the use of a defined antagonist-free medium (without peptone), prepared in the way previously described with the inclusion of 2% saponin-lysed horse blood, 25.0 μg/ml of NAD and 25.0 μg/ml of hemin (Atherton et al., 1979; “Phosphonopeptides as antibacterial agents: rationale, chemistry, and structure-activity relationships[…]; Antimicrob. Agents Chemother. (1979) 15:677-683). […] All the isolates were prepared at a density equivalent to […] in sterile deionized water using a densitometer (approximately 1.5×10^8 CFU/ml), then diluted to […]. A 1 μl aliquot of each diluted suspension was then placed on dishes with a multispot inoculator to give the recommended final inoculation of 10 000 CFU/spot (Andrews, 2001. “Determination of minimum inhibitory concentrations”; J. Antimicrob. Chemother. 48 Suppl 1:5-16). All the dishes (including the antimicrobial-free controls) were incubated for 22 hours at 37° C. All the tests were carried out on at least two independent replicates in order to examine the reproducibility.\n(§2) The bacterial isolates tested all come from international collections, the American Type Culture Collection (ATCC) and the National Collection of Type Cultures (NCTC)."}, "[2]": {"test_system": "Listeria monocytogenes NCTC 11994", "conditions": "NCTC11994, 22 hours at 37° C.", "experimental": "as §1, §2"}, "[3]": {"test_system": "Acinetobacter baumannii ATCC 19606", "conditions": "ATCC19606, 22 hours at 37° C.", "experimental": "as §1, §2"}, "[4]": {"test_system": "Pseudomonas aeruginosa NCTC 10662", "conditions": "NCTC10662, 22 hours at 37° C.", "experimental": "as §1, §2"}, "[5]": {"test_system": "Escherichia coli NCTC 12241", "conditions": "NCTC12241, 22 hours at 37° C.", "experimental": "as §1, §2"}, "[6]": {"test_system": "Burkholderia cepacia ATCC 25416", "conditions": "ATCC25416, 22 hours at 37° C.", "experimental": "as §1, §2"}, "[7]": {"test_system": "Staphylococcus aureus (MRSA) NCTC 11939", "conditions": "22 hours at 37° C.", "experimental": "as §1, §2"}, "[8]": {"test_system": "Salmonella enteritidis NCTC 6676", "conditions": "Salmonella enterica, 22 hours at 37° C.", "experimental": "as §1, §2"}, "[9]": {"test_system": "Providencia rettgeri NCTC 7475", "conditions": "NCTC7475, 22 hours at 37° C.", "experimental": "as §1, §2"}, "[10]": {"test_system": "Salmonella enteritidis NCTC 74", "conditions": "Salmonella enterica, 22 hours at 37° C.", "experimental": "as §1, §2"}, "[11]": {"test_system": "Staphylococcus aureus (MSSA) NCTC 6571", "conditions": "22 hours at 37° C.", "experimental": "as §1, §2"}, "[12]": {"test_system": "Yersinia enterocolitica NCTC 11176", "experimental": "as §1, §2"}, "[13]": {"test_system": "Enterobacter cloacae NCTC 11936", "conditions": "NCTC11936, 22 hours at 37° C.", "experimental": "as §1, §2"}, "[14]": {"test_system": "Bacillus subtilis NCTC 9372", "experimental": "as §1, §2"}, "[15]": {"test_system": "Escherichia coli NCTC 10418", "conditions": "NCTC10418, 22 hours at 37° C.", "experimental": "as §1, §2"}, "[16]": {"test_system": "Streptococcus agalactiae NCTC 8181", "conditions": "NCTC8181, 22 hours at 37° C.", "experimental": "as §1, §2"}, "[17]": {"test_system": "Enterococcus faecalis NCTC 775", "experimental": "as §1, §2"}, "[18]": {"test_system": "Klebsiella pneumoniae NCTC 9528", "experimental": "as §1, §2"}, "[19]": {"test_system": "Staphylococcus epidermidis NCTC 11047", "conditions": "NCTC11047, 22 hours at 37° C.", "experimental": "as §1, §2"}, "[20]": {"test_system": "Enterococcus faecium NCTC 7171", "experimental": "as §1, §2"}, "[21]": {"test_system": "Serratia marcescens NCTC 10211", "experimental": "as §1, §2"}, "[22]": {"conditions": "at very low concentrations, of about 2 mg/l, enterococci"}},
  "data": [
    {"compound": "C[C@H](NC(=O)[C@@H]1CCC(=O)N1)c1nnn[nH]1", "note": "[compound 12, L-pyroglutamyl-L-1-aminoethyltetrazole]", "values": [
      {"measurement": "MIC", "setting": "[1]", "value": "> 128", "unit": "mg/L"},
      {"measurement": "MIC", "setting": "[2]", "value": "> 128", "unit": "mg/L"},
      {"measurement": "MIC", "setting": "[3]", "value": "> 128", "unit": "mg/L"},
      {"measurement": "MIC", "setting": "[4]", "value": "> 128", "unit": "mg/L"},
      {"measurement": "MIC", "setting": "[5]", "value": "> 128", "unit": "mg/L"},
      {"measurement": "MIC", "setting": "[6]", "value": "> 128", "unit": "mg/L"},
      {"measurement": "MIC", "setting": "[7]", "value": "> 128", "unit": "mg/L"},
      {"measurement": "MIC", "setting": "[8]", "value": "> 128", "unit": "mg/L"},
      {"measurement": "MIC", "setting": "[9]", "value": "> 128", "unit": "mg/L"},
      {"measurement": "MIC", "setting": "[10]", "value": "> 128", "unit": "mg/L"},
      {"measurement": "MIC", "setting": "[11]", "value": "> 128", "unit": "mg/L"},
      {"measurement": "Growth at various concentrations (mg/l)", "setting": "[12]; 2 mg/l, Yersinia enterocolitica NCTC 11176", "value": "Tr."},
      {"measurement": "MIC", "setting": "[12]; NCTC11176, Yersinia enterocolitica NCTC 11176, 22 hours at 37° C.", "value": 4, "unit": "mg/L"},
      {"measurement": "antibacterial activity (in words)", "setting": "[12]; Yersinia enterocolitica", "value": "highly inhibitory"},
      {"measurement": "MIC", "setting": "[13]", "value": "> 128", "unit": "mg/L"},
      {"measurement": "antibacterial activity (in words)", "setting": "[14]; Bacillus subtilis", "value": "highly inhibitory"},
      {"measurement": "MIC", "setting": "[14]; NCTC9372, Bacillus subtilis NCTC 9372, 22 hours at 37° C.", "value": 64, "unit": "mg/L"},
      {"measurement": "MIC", "setting": "[15]", "value": "> 128", "unit": "mg/L"},
      {"measurement": "MIC", "setting": "[16]", "value": "> 128", "unit": "mg/L"},
      {"measurement": "antibacterial activity (in words)", "setting": "[17]; Enterococcus faecalis", "value": "highly inhibitory"},
      {"measurement": "MIC", "setting": "[17]; NCTC775, Enterococcus faecalis NCTC 775, 22 hours at 37° C.", "value": 2, "unit": "mg/L"},
      {"measurement": "inhibition specificity (in words)", "setting": "[17]; [22]", "value": "excellent inhibition specificity for enterococci"},
      {"measurement": "Growth at various concentrations (mg/l)", "setting": "[18]; 4 mg/l, Klebsiella pneumoniae NCTC 9528", "value": "Tr."},
      {"measurement": "antibacterial activity (in words)", "setting": "[18]; Klebsiella pneumoniae", "value": "highly inhibitory"},
      {"measurement": "MIC", "setting": "[18]; NCTC9528, Klebsiella pneumoniae NCTC 9528, 22 hours at 37° C.", "value": 8, "unit": "mg/L"},
      {"measurement": "MIC", "setting": "[19]", "value": "> 128", "unit": "mg/L"},
      {"measurement": "antibacterial activity (in words)", "setting": "[20]; Enterococcus faecium", "value": "highly inhibitory"},
      {"measurement": "MIC", "setting": "[20]; NCTC7171, Enterococcus faecium NCTC 7171, 22 hours at 37° C.", "value": 2, "unit": "mg/L"},
      {"measurement": "inhibition specificity (in words)", "setting": "[20]; [22]", "value": "excellent inhibition specificity for enterococci"},
      {"measurement": "MIC", "setting": "[21]; NCTC10211, Serratia marcescens NCTC 10211, 22 hours at 37° C.", "value": 8, "unit": "mg/L"},
      {"measurement": "antibacterial activity (in words)", "setting": "[21]; Serratia marcescens", "value": "highly inhibitory"}
    ]}
  ]
}
